Source: paper PMC12603041, “A neuroprotective tetrapeptide for treatment of acute traumatic brain injury” (EMBO Molecular Medicine, 2025)
Peptide text beside a SMILES is read from it.

Assays:
injured brain [1] = details: mouse, in vivo
Method: (§1) Figure 2 Pharmacokinetic analysis of CAQK. (A) Mice with CCI received i.v. bolus of CAQK (12.5 mg/kg) at 4 h after CCI. Blood was collected at different time points, and plasma was analyzed by LC/MS. Plasma concentration of CAQK was plotted using WinNonlin. N = 3 per time point. (B) Plasma clearance data were used to calculate pharmacokinetic parameters using a two-compartment analysis. (C) CAQK accumulation was analyzed in brain homogenates from injured (ipsilateral) and uninjured (contralateral) sides at different time points after i.v. injection and plotted as ng/g of brain tissue. N = 3/group. Data were expressed as mean ± SEM. Differences were analyzed using an unpaired t-test. […] vs contralateral side. […] It is not in the table of panel B, so it is not attached as a condition.
CAQK (12.5 mg/kg) was injected i.v. into mice with CCI at 4 h post-injury. Blood was collected from these mice at different time points, and plasma was processed and analyzed by LC/MS after a reduction and alkylation step under reducing conditions to capture total peptide (free peptide and peptide bound to plasma proteins by disulfide formation). Plasma concentration was plotted using WinNonlin. […] Blood was collected at different time points at Day 1 and Day, 7 and plasma was analyzed by LC/MS to analyze CAQK. […]

[2] = CAQK plasma clearance in rats; assay type: in vivo, rat
Method: Figure EV2 CAQK plasma clearance in rats. (A) CAQK was injected daily i.v. in healthy adult Sprague-Dawley rats at a 10 mg/kg dose for 7 days. Blood was collected at different time points at Day 1 and Day 7, and plasma was analyzed by LC/MS to analyze CAQK. Plasma concentration of CAQK was plotted. N = 3 per time point. Plasma clearance data were also used to calculate pharmacokinetic parameters in (B). (C) FP measurement of CAQK binding to BSA. FAM-CAQK (20 nM) was incubated with BSA at the indicated concentration for 1 h at 37 °C. n = 3.
(§2) CAQK (12.5 mg/kg) was injected i.v. into mice with CCI at 4 h post-injury. Blood was collected from these mice at different time points, and plasma was processed and analyzed by LC/MS after a reduction and alkylation step under reducing conditions to capture total peptide (free peptide and peptide bound to plasma proteins by disulfide formation). Plasma concentration was plotted using WinNonlin. Similarly, for analysis in rats, CAQK (10 mg/kg) was injected i.v. into healthy Sprague-Dawley rats once daily for 7 days. Blood was collected at different time points at Day 1 and Day, 7 and plasma was analyzed by LC/MS to analyze CAQK. Plasma concentration of CAQK was plotted. N = 3 per time point.

in vivo = details: mouse, iv, 12.5 mg/kg
Method: as §1, §2

Safety study in CCI mice = assay type: in vivo, mouse; details: for ALP / ALT / BUN / GGT / TBIL: CCI mice, blood after two weeks, n = 5; for ALP / ALT / BUN: mean ± SD
Method: Male C57BL/6 mice (n = 5 per group) with CCI injury were intravenously administered daily with control PBS or with various concentrations (1, 5, and 25 mg/kg) of the CAQK peptide. After 2 weeks, blood was collected from the mice and analyzed for liver and kidney toxicity. Tests performed for liver function (ALP: alkaline phosphatase, ALT: alanine aminotransferase, TBIL total bilirubin, GGT G-glutamyl transferase) and kidney function (BUN: blood urea nitrogen). Results expressed as mean ± SD. For a more detailed safety analysis, Sprague-Dawley rats were randomized to four dose groups. CAQK or vehicle (0.9% sodium chloride injection, USP) was administered once daily by i.v. administration to male and female rats at 0 (vehicle),10, 100, or 300 mg/kg/day (Groups 1–4, respectively) for 7 consecutive days. All animals were euthanized and necropsied after blood sample collection for clinical pathology on Day 8. All animals in Groups 1–4 were evaluated for clinical observations, body weights, and clinical pathology (hematology, coagulation, and serum chemistry), gross necropsy observations and major organ weights. […]
Appendix Table S2. Safety study in CCI mice. C57BL/6 mice (n = 5 per group) with CCI injury were intravenously injecteddaily for 7 days with vehicle control (PBS)or with the shown concentration of the CAQK peptide. After two weeks, blood was collected from the mice and analyzed for liver and kidney toxicity. Tests performed for liver function:ALP:
Alkaline Phosphatase, ALT: Alanine Aminotransferase, TBIL-total bilirubin, GGT -G-glutamyl transferase,and for kidney function:BUN: Blood urea nitrogen. Results

injured brain [3] = details: mouse, in vivo, iv; cited from earlier work
Description: We have previously identified a tetrapeptide, CAQK, that accumulates in the ECM of the injured brain. […] We reasoned that knowing the target molecule CAQK binds to would likely give hints of the possible nature of such an activity. Previous work has shown that CAQK binds to a chondroitin sulfate proteoglycan (CSPG)-rich protein complex, the expression of which is elevated following an inju ... || Given the CAQK accumulation in the injured brain and binding to TnC in injured ECM, and the functional activities observed with other homing peptides, it seemed possible that CAQK might affect the course of TBI. To prepare for functional testing of CAQK, we performed CAQK half-life analyses using a mouse model of CCI. […] Initial clearance from the circulation through glomerular filtration is expected for a small peptide, explaining the short half-life. A small per ...

C[C@H](NC(=O)[C@@H](N)CS)C(=O)N[C@@H](CCC(N)=O)C(=O)N[C@@H](CCCCN)C(N)=O [CAQK, cysteine-alanine-glutamine-lysine] (H-CAQK-NH2)
estimated half-life in the brain (injured brain [1]): about 5.8 h
accumulation in the injured side of the brain versus the contralateral side (injured brain [1]; iv): over eightfold
half-life after single injection versus daily injections over a week ([2]; healthy Sprague-Dawley rats, 10 mg/kg i.v. daily for 7 days, Day 1 and Day 7): remained the same
pK profile after 7-day repeat dosing ([2]; repeat IV dosing, 7 days): unaltered
AUC(0-inf) (in vivo): 27800 ng·h/mL
AUC(0-t) (in vivo): 27400 ng·h/mL
C0 (in vivo): 45100 ng/mL
CL2 (in vivo): 13 mL/min/kg
MRT (in vivo): 4.2 h
T1/2, initial rapid clearance from the blood (in vivo): 9 min
T1/2, second elimination phase (in vivo): 4.1 h
V1 (in vivo): 0.28 L/kg
V2 (in vivo): 1.6 L/kg
Vd (in vivo): 1.9 L/kg
clearance (in vivo): 7.5 mL/min/kg
half-life (in vivo): 4.2 h
k10 (in vivo): 1.6 h⁻¹
k12 (in vivo): 2.8 h⁻¹
k21 (in vivo): 0.48 h⁻¹
t1/2Alpha (in vivo): 9 min
ALP (Safety study in CCI mice; 1 mg/kg i.v. daily for 7 days): 45 ± 5.3 U/L
ALT (Safety study in CCI mice; 1 mg/kg i.v. daily for 7 days): 24.3 ± 6.8 U/L
BUN (Safety study in CCI mice; 1 mg/kg i.v. daily for 7 days): 21.3 ± 3.5 mg /bL
GGT (Safety study in CCI mice; 1 mg/kg i.v. daily for 7 days): < 5 U/L
TBIL (Safety study in CCI mice; 1 mg/kg i.v. daily for 7 days): 0.3 mg/dL
ALP (Safety study in CCI mice; 5 mg/kg i.v. daily for 7 days): 47.4 ± 8.2 U/L
ALT (Safety study in CCI mice; 5 mg/kg i.v. daily for 7 days): 23.4 ± 4.9 U/L
BUN (Safety study in CCI mice; 5 mg/kg i.v. daily for 7 days): 22.2 ± 1 mg /bL
GGT (Safety study in CCI mice; 5 mg/kg i.v. daily for 7 days): < 5 U/L
TBIL (Safety study in CCI mice; 5 mg/kg i.v. daily for 7 days): 0.3 mg/dL
ALP (Safety study in CCI mice; 25 mg/kg i.v. daily for 7 days): 42.6 ± 7.6 U/L
ALT (Safety study in CCI mice; 25 mg/kg i.v. daily for 7 days): 34.8 ± 13.2 U/L
BUN (Safety study in CCI mice; 25 mg/kg i.v. daily for 7 days): 24.8 ± 2.05 mg /bL
GGT (Safety study in CCI mice; 25 mg/kg i.v. daily for 7 days): < 5 U/L
TBIL (Safety study in CCI mice; 25 mg/kg i.v. daily for 7 days): 0.3 mg/dL
effects on body weight, organ weight, or clinical pathology (Safety study in CCI mice; TBI mice, daily i.v. doses (1, 5, and 25 mg/kg)): no effects
accumulation in other organs (injured brain [3]): No other organs showed peptide accumulation except the kidneys
